Test results: paper PMC8982737, “Discovery of S-217622, a Noncovalent Oral SARS-CoV-2 3CL Protease Inhibitor Clinical Candidate for Treating COVID-19” (Journal of Medicinal Chemistry, 2022)

Tested on: SARS-CoV-2
Experiment: microbe, parasite or virus in culture
Type: cell-based
Conditions: Severe acute respiratory syndrome coronavirus 2, VeroE6/TMPRSS2; read-out: EC50 against all tested SARS-CoV-2 variants

Cn1cnc(Cn2c(=O)[nH]/c(=N\c3cc4cn(C)nc4cc3Cl)n(Cc3cc(F)c(F)cc3F)c2=O)n1 [Compound 3, (6E)-6-[(6-Chloro-2-methyl-2H-indazol-5-yl)imino]-3-[(1-methyl-1H-1,2,4-triazol-3-yl)methyl]-1-(2,4,5-trifluorobenzyl)-1,3,5-triazinane-2,4-dione]
EC50: 290 to 500 nM
